Measurements: US20240216330A1, “COMBINATION TREATMENT METHODS OF MULTIPLE SCLEROSIS” (BIOGEN MA INC., priority 2021, published 2024)
Structures can show the parent of a compound that is named as a salt. Marks after values point to notes of the source that are not given here.

Assays:
[1] = test system: BCR-mediated CD69 upregulation on CD19+ B cells; assay: CD69 assay in whole blood stimulated with anti-human IgD; format: cell-based; settings: 30 minutes pre-incubation at 37° C., overnight anti-IgD stimulation
[2] = test system: B cell-dependent experimental autoimmune encephalomyelitis (EAE); assay: Prophylactic B cell-dependent EAE, murine model of multiple sclerosis (hMOG1-125 immunization); format: in vivo, C57BL/6 mice; settings: BIIB091 50 mpk and/or DRF 90 mpk p.o. BID; for End score +/- SD: EAE score scale 0 to 5, end of study Day 28; for MMS +/- SD (mean maximum score): EAE score scale 0 to 5; for MMS +/- SD (mean maximum score) / EAE incidence / Median day of onset (all mice): Day 0 to Day 27; for End % body weight +/- SD: end of study Day 28; for EAE incidence / Median day of onset (all mice): female C57BL/6 mice; for EAE incidence: 20 animals per group; for Median day of onset (all mice): study end Day 28
Source text: The goal of the study is to compare efficacy of diroximel fumarate (Vumerity) alone, BIIB091 alone, and the combination diroximel fumarate and BIIB091 in B cell-dependent experimental autoimmune encephalomyelitis (EAE). B cells are required for experimental autoimmune encephalomyelitis (EAE) induced by immunization of female C57BL/6J mice with full length recombinant human myelin oligodendrocyte glycoprotein (MOG) hMOG1-125 in adjuvant (Oliver, A. R. et al. “Rat and human myelin oligodendrocyte glycoproteins induce experimental autoimmune encephalomyelitis by different mechanisms in C57BL/6 mice.” J Immunol (2003). 171(1): 462-468; Lyons, J. et al “B cells are critical to induction of experimental allergic encephalomyelitis by protein but not by a short encephalitogenic peptide”. Eur. J. Immunol. (1999), 29: 3432-3439). [table] Female mice at 9-13 weeks of age (age-matched within one week) were ordered from Taconic Biosciences and given standard water and chow ad libitum throughout the duration of the experiment. Mice were acclimated to the […] for at least 7 days prior to the start of the study. EAE was induced in all mice as follows: [table] Mice were injected subcutaneously at 2 sites in the back with the emulsion component (containing MOG1-125) of Hooke KitTM MOG1-125/CFA Emulsion PTX, catalog number EK-2160 (Hooke Laboratories, Lawrence MA). The first site of injection was in the upper back, approximately 1 cm caudal of the neck line. The second site was in the lower back, approximately 2 cm cranial of the base of the tail. The injection volume was 0.1 mL at each site. Within 2 hours of the injection of emulsion, and then again 24 hours after the injection of emulsion, the pertussis toxin component of the kit was administered intraperitoneally. Mice were assigned to groups in a balanced manner to achieve similar average weight across the groups at the start of the study (Day-1). Dosing volume of all treatments was 5 mL/kg. Both treatment compounds were formulated in the same vehicle: (0.5% HPMC E50 premium LV/0.2% Tween 20 pH 4 (50 mM Citrate Buffer) [table] Dosing of all mice started on Day 0 and continued through Day 27. Dosing for each treatment was at the same time (+/-1 hour) each dosing day. There were at least 30 and not more than 90 minutes between administration of Treatments 1 and 2. There were no less than 10 and no more than 14 hours between doses of the same article Readouts are EAE scores and body weight. Body weight were measured 3 times/week (Monday, Wednesday, Friday; weighing may be delayed 1 day if these fall on a major US holiday), starting on Day-1. Animals were scored daily starting from Day 7. All readouts continued until termination of the study. Scoring was performed blind, by a person unaware both of treatment and of previous scores for each mouse. EAE was scored on the scale of 0 to 5 according to scoring criteria in Table 3 below: [table] In-between scores were assigned when the clinical signs fall between two above defined scores. b. Statistical Analysis Hooke's standard statistical analysis for EAE studies was applied, according to Table 4 below. [table]

[3] = test system: MRL/LPR mice (autoimmune disease resembling systemic lupus erythematosus); assay: MRL/LPR mice model of lupus; format: in vivo; settings: female MRL/LPR mice, oral BID for 11 weeks from 9 weeks of age; BIIB091 50 mg/kg, DRF 90 mg/kg
Source text: MRL/MpJ-Fas^lppr/J (MRL-lpr) (hereinafter MRL/LPR mice) mice develop an autoimmune disease resembling systemic lupus erythematosus (SLE). These mice have a severe disease progression involving anti-DNA antibodies, fatal glomerulonephritis, vasculitis, skin lesions, lymphadenopathy and splenomegaly. The causative mutation in this strain of mice is a loss of function in the death receptor Fas and disease onset is accelerated in female mice as compared to males. For this reason, female mice were chosen for these experiments.
Female MRL/LPR mice were ordered from the Jackson laboratory and all experiments were conducted a Boulder Biopath.
Female mice were dosed orally beginning at 9 weeks of age with BIIB091 alone, DRF alone, BIIB091 and DRF in combination or the vehicle control twice daily (BID) for 11 weeks. BIIB091 was dosed at 50 mg/kg, while DRF was dosed at 90 mg/kg, respectively. Cyclophosphamide (CPA) was used as a positive control in the study and was administered through intraperitoneal injection (IP) once daily at 15 mg/kg. […]
The following serum cytokines and chemokines were assessed using Luminex assays: IL-1B, IL-2, IL-4, IL-5, IL-6, IL-10, IL-12, IL-13, IL-15, IL-17A, IL-17E, IL-17F, IL-21, IL-22, IL-23, IL-27, IL-28B, IL-31 and IL-33; sCD40L, GM-CSF, IFNγ, MIP-3α, TNFα and TNFβ. […]

[4] = cited from earlier work

Row | SMILES | Inhibition of BCR-mediated CD69 upregulation ([1]; whole blood samples from MS patients not on treatment or treated with non-DMF DMTs) | Inhibition of BCR-mediated CD69 upregulation ([1]; whole blood samples from MS patients treated with DMF) | End score +/- SD [2] | MMS +/- SD (mean maximum score) [2] | End % body weight +/- SD [2] | EAE incidence [2] [%^a] | Median day of onset (all mice) [2] | Efficacy in mice model of lupus [3] | MMF exposure ([4]; DRF 462 mg dose taken orally versus DMF 240 mg dose taken orally) | GI tolerability ([4]; compared to DMF)
1 | Cn1cc(Nc2nccc(-c3ccc4c(c3)CN(C3COC3)CC[C@H]4NC(=O)c3cn(C(C)(C)C)nn3)n2)cn1 [BIIB091, (R)-1-(tert-butyl)-N-(8-(2-((1-methyl-1H-pyrazol-4-yl)amino)pyrimidin-4-yl)-2-(oxetan-3-yl)-2,3,4,5-tetrahydro-1H-benzo[c]azepin-5-yl)-1H-1,2,3-triazole-4-carboxamide] | inhibited | inhibited | 0.60 +/− 0.88^a | 1.13 +/− 1.38^a | 102.8% +/− 8.3%^a | 45.0 | >28.0^a* day | efficacious |  | 
2 | COC(=O)/C=C/C(=O)OCCN1C(=O)CCC1=O [DRF, diroximel fumarate] |  |  | 1.00 +/− 1.19^a | 1.45 +/− 1.52^a | 98.2% +/− 8.3% | 50.0 | >28.0^a* day | did not show efficacy | comparable to that of the DMF 240 mg dose | improved GI tolerability compared to DMF
